According to ChEMBL document CHEMBL3045835, “Comparative study of conventional and microwave-assisted synthesis of some Schiff bases and their potential as antimicrobial agents” (2012):
Values after ≈ are worked out from the molar mass of the structure shown.

Experiments:
Type in all cases: functional
Pseudomonas aeruginosa [1] = assay: Antibacterial activity against Pseudomonas aeruginosa MTCC 424 at 500 ug/ml after 18 hr by cup-plate method; settings: MTCC 424, 18 h, read-out: DIZ
Pseudomonas aeruginosa [2] = assay: Antibacterial activity against Pseudomonas aeruginosa MTCC 424 at 200 ug/ml after 18 hr by cup-plate method; settings: MTCC 424, 18 h, read-out: DIZ
Pseudomonas aeruginosa [3] = assay: Antibacterial activity against Pseudomonas aeruginosa MTCC 424 at 100 ug/ml after 18 hr by cup-plate method; settings: MTCC 424, 18 h, read-out: DIZ
Micrococcus luteus [4] = assay: Antibacterial activity against Micrococcus luteus MTCC 1538 at 1500 ug/ml after 18 hr by cup-plate method; settings: MTCC 1538, 18 h, read-out: DIZ
Micrococcus luteus [5] = assay: Antibacterial activity against Micrococcus luteus MTCC 1538 at 1000 ug/ml after 18 hr by cup-plate method; settings: MTCC 1538, 18 h, read-out: DIZ
Micrococcus luteus [6] = assay: Antibacterial activity against Micrococcus luteus MTCC 1538 at 500 ug/ml after 18 hr by cup-plate method; settings: MTCC 1538, 18 h, read-out: DIZ
Micrococcus luteus [7] = assay: Antibacterial activity against Micrococcus luteus MTCC 1538 at 200 ug/ml after 18 hr by cup-plate method; settings: MTCC 1538, 18 h, read-out: DIZ
Micrococcus luteus [8] = assay: Antibacterial activity against Micrococcus luteus MTCC 1538 at 100 ug/ml after 18 hr by cup-plate method; settings: MTCC 1538, 18 h, read-out: DIZ
Bacillus pumilus [9] = assay: Antibacterial activity against Bacillus pumilus MTCC 1456 at 1500 ug/ml after 18 hr by cup-plate method; settings: MTCC 1456, 18 h, read-out: DIZ
Bacillus pumilus [10] = assay: Antibacterial activity against Bacillus pumilus MTCC 1456 at 1000 ug/ml after 18 hr by cup-plate method; settings: MTCC 1456, 18 h, read-out: DIZ
Bacillus pumilus [11] = assay: Antibacterial activity against Bacillus pumilus MTCC 1456 at 500 ug/ml after 18 hr by cup-plate method; settings: MTCC 1456, 18 h, read-out: DIZ
Bacillus pumilus [12] = assay: Antibacterial activity against Bacillus pumilus MTCC 1456 at 200 ug/ml after 18 hr by cup-plate method; settings: MTCC 1456, 18 h, read-out: DIZ
Bacillus pumilus [13] = assay: Antibacterial activity against Bacillus pumilus MTCC 1456 at 100 ug/ml after 18 hr by cup-plate method; settings: MTCC 1456, 18 h, read-out: DIZ
Bacillus subtilis [14] = assay: Antibacterial activity against Bacillus subtilis MTCC 441 at 1000 ug/ml after 18 hr by cup plate method; settings: MTCC 441, 18 h, read-out: DIZ
Bacillus subtilis [15] = assay: Antibacterial activity against Bacillus subtilis MTCC 441 at 1500 ug/ml after 18 hr by cup plate method; settings: MTCC 441, 18 h, read-out: DIZ
Bacillus subtilis [16] = assay: Antibacterial activity against Bacillus subtilis MTCC 441 at 500 ug/ml after 18 hr by cup plate method; settings: MTCC 441, 18 h, read-out: DIZ
Bacillus subtilis [17] = assay: Antibacterial activity against Bacillus subtilis MTCC 441 at 200 ug/ml after 18 hr by cup plate method; settings: MTCC 441, 18 h, read-out: DIZ
Bacillus subtilis [18] = assay: Antibacterial activity against Bacillus subtilis MTCC 441 at 100 ug/ml after 18 hr by cup plate method; settings: MTCC 441, 18 h, read-out: DIZ
Staphylococcus aureus [19] = assay: Antibacterial activity against Staphylococcus aureus MTCC 1430 at 1500 ug/ml after 18 hr by cup-plate method; settings: MTCC 1430, 18 h, read-out: DIZ
Staphylococcus aureus [20] = assay: Antibacterial activity against Staphylococcus aureus MTCC 1430 at 1000 ug/ml after 18 hr by cup-plate method; settings: MTCC 1430, 18 h, read-out: DIZ
Staphylococcus aureus [21] = assay: Antibacterial activity against Staphylococcus aureus MTCC 1430 at 500 ug/ml after 18 hr by cup-plate method; settings: MTCC 1430, 18 h, read-out: DIZ
Staphylococcus aureus [22] = assay: Antibacterial activity against Staphylococcus aureus MTCC 1430 at 200 ug/ml after 18 hr by cup-plate method; settings: MTCC 1430, 18 h, read-out: DIZ
Staphylococcus aureus [23] = assay: Antibacterial activity against Staphylococcus aureus MTCC 1430 at 100 ug/ml after 18 hr by cup-plate method; settings: MTCC 1430, 18 h, read-out: DIZ
Penicillium chrysogenum = assay: Antifungal activity against Penicillium chrysogenum MTCC 161 after 24 hr by broth dilution method; settings: MTCC 161, 24 h
Aspergillus niger = assay: Antifungal activity against Aspergillus niger MTCC 2546 after 24 hr by broth dilution method; settings: MTCC 2546, 24 h
Escherichia coli = assay: Antibacterial activity against Escherichia coli MTCC 1573 after 24 hr by broth dilution method; settings: MTCC 1573, 24 h
Pseudomonas fluorescens = assay: Antibacterial activity against Pseudomonas fluorescens MTCC 2421 after 24 hr by broth dilution method; settings: MTCC 2421, 24 h

C(=N\c1nc[nH]n1)/c1cccs1
zone of inhibition at 500 µg/mL (Pseudomonas aeruginosa [1]): 15 mm | zone of inhibition at 200 µg/mL (Pseudomonas aeruginosa [2]): 13 mm | zone of inhibition at 100 µg/mL (Pseudomonas aeruginosa [3]): 12 mm | zone of inhibition at 1500 µg/mL (Micrococcus luteus [4]): 22 mm | zone of inhibition at 1000 µg/mL (Micrococcus luteus [5]): 20 mm | zone of inhibition at 500 µg/mL (Micrococcus luteus [6]): 18 mm | zone of inhibition at 200 µg/mL (Micrococcus luteus [7]): 16 mm | zone of inhibition at 100 µg/mL (Micrococcus luteus [8]): 13 mm | zone of inhibition at 1500 µg/mL (Bacillus pumilus [9]): 18 mm | zone of inhibition at 1000 µg/mL (Bacillus pumilus [10]): 17 mm | zone of inhibition at 500 µg/mL (Bacillus pumilus [11]): 16 mm | zone of inhibition at 200 µg/mL (Bacillus pumilus [12]): 15 mm | zone of inhibition at 100 µg/mL (Bacillus pumilus [13]): 13 mm | zone of inhibition at 1000 µg/mL (Bacillus subtilis [14]): 16 mm | zone of inhibition at 1500 µg/mL (Bacillus subtilis [15]): 22 mm | zone of inhibition at 500 µg/mL (Bacillus subtilis [16]): 14 mm | zone of inhibition at 200 µg/mL (Bacillus subtilis [17]): 11 mm | zone of inhibition at 100 µg/mL (Bacillus subtilis [18]): 10 mm | zone of inhibition at 1500 µg/mL (Staphylococcus aureus [19]): 19 mm | zone of inhibition at 1000 µg/mL (Staphylococcus aureus [20]): 18 mm | zone of inhibition at 500 µg/mL (Staphylococcus aureus [21]): 16 mm | zone of inhibition at 200 µg/mL (Staphylococcus aureus [22]): 13 mm | zone of inhibition at 100 µg/mL (Staphylococcus aureus [23]): 11 mm | MIC (Penicillium chrysogenum): 400 µg/mL (≈ 2240 µM) | MIC (Aspergillus niger): 300 µg/mL (≈ 1680 µM) | MIC (Escherichia coli): 200 µg/mL (≈ 1120 µM) | MIC (Pseudomonas fluorescens): 300 µg/mL (≈ 1680 µM)
